This is an account of results in article PMC4489196, “Visualization of regional tau deposits using ^3H-THK5117 in Alzheimer brain tissue” (Acta Neuropathologica Communications, 2015).

For experiment [1], the target named is ^3H-THK5117 binding sites in AD temporal cortex homogenates (tau) (Homo sapiens, UniProt P10636). Description: Competition binding against ^3H-THK5117 (3 nM) in temporal cortex homogenates. Particulars: for Ki: AD temporal cortices. As for the experimental part:
(§1) Human brain tissues from eight Alzheimer patients and eight controls were obtained from the Netherlands Brain Bank (demographic details in Table 1), and homogenized in PBS containing 0.1 % BSA and protease/phosphatase inhibitor.
(§2) The specificity and selectivity of ^3H-THK5117 binding was determined by incubating homogenates (0.1 mg tissue) from Alzheimer’s patients’ temporal cortex and hippocampus with ^3H-THK5117 (3 nM), in the presence of THK5117 (10^−5 -10^−13 M), FDDNP (10^−6 -10^−14 M) or BTA-1 (10^−5 -10^−13 M). The results were analyzed with GraphPad Prism software, and the resulting inhibitory constants (Ki) were determined.

The target of experiment [2] is neurofibrillary tangles (Homo sapiens, UniProt P10636). The experiment is described as follows: THK5117 autofluorescence staining with adjacent AT8 immunostaining. The class given is binding. Particulars: paraffin hippocampus section of another AD case; confirmed with AT8 on adjacent section. From the text:
A paraffin section from hippocampus of a patient with confirmed AD (at death, Braak VI, from the Netherlands brain bank) were quenched and stained with THK5117 following the procedure used by Okamura and colleagues for autofluorescence studies. An adjacent section was labeled with AT8 anti-tau and assessed using the EnVision + System HRP (DAB) (Dako Denmark) detection method.

The test system of experiment [3] is ^3H-THK5117 binding sites in hippocampus homogenates of one AD case (tau). Description: Competition binding THK5117 against ^3H-THK5117 (3 nM) in hippocampus homogenates. On the set-up: species or system Human. On the procedure: as §1, §2
A. Saturation binding curve and B. Scatchard plot of ^3H-THK5117 (0.04-270nM) for hippocampus homogenates of one AD patient. The plain regression line was determined by GraphPad Prism software and corresponds to the low affinity site. The dotted regression line was determined manually and corresponds to the high affinity site. Corresponding Kd and Bmax values are mentioned below the curve. C. Competition binding curve between THK5117 (10^-13-10^-5M) and ^3H-THK5117 (3nM) for hippocampus homogenates of one AD case. […] Ki Sup Hi = Ki for super high binding site; Ki Hi = Ki for high binding site; Ki Lo = Ki for low binding site.

Experiment [4] has as its system ^3H-PIB binding sites (amyloid). The experiment is described as follows: Competition between ^3H-PIB and unlabeled THK5117. On the set-up: species or system Human.
Experiment [5] deals with hippocampus homogenates of one AD patient (tau) (Homo sapiens, UniProt P10636). The experiment is described as follows: Saturation binding assay of ^3H-THK5117 in hippocampus homogenates. Particulars: one Alzheimer brain. As for the experimental part: as §1
(§3) Saturation binding assays were carried out with incubation of temporal cortex and hippocampus homogenates (0.1 mg tissue) with ^3H-THK5117 (0.04-270 nM) for 2 h at room temperature. Non-specific binding was determined with 1 μM THK5117. The binding reaction was terminated by filtering through glass fiber filters (pre-soaked for 3 h in 0.3 % polyethylenimine), and rinsing three times with cold binding buffer, and counted with a beta scintillation counter (Beckman Coulter LS6500). The results were analyzed with GraphPad Prism software (version 5.0f for Mac OS X, GraphPad Software, San Diego California USA). The equilibrium dissociation constant (Kd) and maximum number of binding sites (Bmax) were then determined.

Experiment [6] concerns the target post-mortem AD temporal brain tissue homogenates (tau) (Homo sapiens, UniProt P10636). The experiment is described as follows: Saturation binding assay of ^3H-THK5117 in temporal cortex homogenates. Conditions: AD temporal lobe homogenates. As for the experimental part:
as §1, §3

For experiment [7], the system named is frozen brain sections from left hemispheres of AD cases and control case (tau). The experiment is described as follows: ^3H-THK5117 autoradiography on large frozen brain hemisphere sections. The class given is binding, Human. From the text:
Postmortem brain tissue for autoradiography studies was obtained from three patients with AD that all three had been clinically followed (by A.N.) at the Department of Geriatric Medicine, Karolinska University Hospital, Huddinge, Sweden. The left hemisphere of each brain was frozen in large block sections. The right hemispheres were fixed in formaldehyde, brain tissue was sampled according to the BrainNet Europe protocol and histopathological investigations were undertaken (by I.N.) to confirm AD pathology (see Additional file 1).
Frozen brain sections ([…]) from the left hemispheres of the three AD cases and the healthy control case were cut with a cryostat at −20 °C and thaw-mounted on chrome alum gelatin-subbed slides following a previously described protocol.
For each case, frozen sections were dried, pre-incubated for 10 min with PBS + 0.1%BSA, and were then incubated for one hour with 4 nM ^3H-THK5117. The non-specific binding assay was performed on adjacent sections in the presence of 10 μM THK5117. After incubation, sections were washed 3 times for 5 min with cold incubation buffer, dipped into cold distilled water, and allowed to dry for at least 24 h. A Fujifilm BAS-2500 phosphor imaging plate was then exposed to the section, along with a tritium standard, for three days (Larodan Fine Chemical AB, Malmö, Sweden) before being scanned by a phosphoimager Fujifilm BAS-2500.
Binding of the tracer was quantitatively assessed using MultiGauge Fujifilm software (V3.0). Two independent raters manually segmented different regions of interest, as defined by Duvernoy in “The Human Hippocampus” [19], resulting in regional mean uptake values for each segment. Inter-rater agreement was assessed for all uptake values using a Bland-Altman plot, with limits of agreement set to 95 %. When agreement was satisfactory, regional uptake values from both raters were averaged for subsequent analyses.

Experiment [8] relates to tau (AT8) in paraffin sections of anterior and posterior hippocampus. The experiment is described as follows: ^3H-THK5117 autoradiography versus AT8 immunostaining on paraffin hippocampus sections. Format: binding, Human. Particulars: adjacent paraffin sections, AD case one. From the text: Routine pathology with AT8 has been performed on anterior and posterior hippocampus paraffin sections from the right hemisphere of the three AD cases. Autoradiographies with ^3H-THK5117 on adjacent sections have been performed after deparafinization following the same protocol as cited above.

The test system of experiment [9] is brain homogenates from patients with AD (tau). Description: Regional binding studies with ^3H-THK5117 (3 nM) in brain homogenates. On the set-up: species or system Human. Conditions: AD cases. On the procedure:
as §1
Regional binding studies with ^3H-THK5117 were carried out on the brain homogenates from temporal cortex, frontal lobe, parietal lobe, caudate nucleus, hippocampus and cerebellum that were incubated with a single concentration of ^3H-THK5117 (3 nM). Non-specific binding was determined with 1 μM of THK5117. Comparisons between AD and control tissues were made using Mann–Whitney non-parametrical tests, with a threshold for significance of p < 0.05.

Several values for one entry are separate records, joined by “and”; a condition that tells them apart may be missing. Equal values may be shown once. Read-outs that look alike come from different tables or passages of the source.

Sequence of ^3H-THK5117 binding sites in AD temporal cortex homogenates (tau) (P10636 623-708 limits assumed): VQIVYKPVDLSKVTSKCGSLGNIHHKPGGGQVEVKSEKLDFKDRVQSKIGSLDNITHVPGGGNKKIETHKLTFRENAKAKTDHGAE
Sequence of post-mortem AD temporal brain tissue homogenates (tau) (P10636 623-758 limits assumed): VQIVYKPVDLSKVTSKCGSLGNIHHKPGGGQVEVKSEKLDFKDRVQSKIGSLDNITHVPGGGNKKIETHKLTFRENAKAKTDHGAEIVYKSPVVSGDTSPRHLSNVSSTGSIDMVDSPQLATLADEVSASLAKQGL
Sequence of hippocampus homogenates of one AD patient (tau) (P10636 623-695 limits assumed): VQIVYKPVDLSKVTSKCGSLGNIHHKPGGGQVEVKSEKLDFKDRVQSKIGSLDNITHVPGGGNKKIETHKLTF
Sequence of neurofibrillary tangles (P10636 623-758 limits assumed): as the sequence (P10636 623-758 limits assumed) above

Turning to `CNc1ccc(-c2nc3ccccc3s2)cc1` [BTA-1, 2-(4-methylaminophenyl)benzothiazole, reference compound], in experiment [1] (temporal cortex homogenates of four AD cases, ^3H-THK5117 3 nM), the “Competition with ^3H-THK5117” value was “No competition”.
As for `CNc1ccc(-c2ccc3cc(OCC(O)CF)ccc3n2)cc1` (stereo not shown) [THK5117], the Autofluorescence staining entry in experiment [2] is given as “THK5117 binding on the neurofibrillary tangles”. For the same compound, the “Number of binding sites in competition binding curve” value in experiment [3] is given as “two different binding sites”. The Ki in experiment [1] (^3H-THK5117 3 nM, averaged from ten experiments, read-out: Ki2) stood at 16 nM; in experiment [1] (^3H-THK5117 3 nM, averaged from ten experiments, read-out: Ki3), 750 nM; in experiment [1] (potential third site, model constraint >100 for start of curve, ten experiments, read-out: Ki1) it was 0.001 nM. Further, the “Competition between ^3H-PIB and unlabeled THK5117” value in experiment [4] is “No competition”.
For `CNc1ccc(-c2ccc3cc(OCC(O)CF)ccc3n2)cc1` (stereo not shown) [^3H-THK5117, 1-Fluoro-3-((2-(4-([^3H]methylamino)phenyl)quinolin-6-yl)oxy)propan-2-ol], the Kd in [5] (high affinity site, read-out: Kd, first binding site) is 3.1 nM; in experiment [5] (low affinity site, read-out: Kd, second binding site), 34 nM; in experiment [6] (high affinity site, determined manually from Scatchard plot, averaged from seven experiments, read-out: Kd1), 2.2 nM; in experiment [6] (low affinity site (GraphPad Prism fit), read-out: Kd2), 24 nM and 23.6 nM.
As to `[3H]CNc1ccc(-c2ccc3cc(OCC(O)CF)ccc3n2)cc1` (stereo not shown) [^3H-THK5117, 1-Fluoro-3-((2-(4-([^3H]methylamino)phenyl)quinolin-6-yl)oxy)propan-2-ol], the “^3H-THK5117 specific binding” value in [7] (Amygdala, AD Case 1) was determined as 507 fmol/mg; in [7] (Cingulate gyrus, AD Case 1) it was 292 fmol/mg; in experiment [7] (Cingulate gyrus, AD Case 2), 120 fmol/mg; in experiment [7] (Cingulate gyrus, AD Case 3), 110 fmol/mg; in [7] (Entorhinal cortex, AD Case 1), 713 fmol/mg; in experiment [7] (Entorhinal cortex, AD Case 2) it was 126 fmol/mg. Besides, the “^3H-THK5117 specific binding” value came to 53 fmol/mg in [7] (Entorhinal cortex, AD Case 3); 585 fmol/mg in [7] (Fusiform gyrus, AD Case 1); 189 fmol/mg in experiment [7] (Fusiform gyrus, AD Case 2); 52 fmol/mg in experiment [7] (Fusiform gyrus, AD Case 3); 693 fmol/mg in experiment [7] (Hippocampus, AD Case 1); 171 fmol/mg in [7] (Hippocampus, AD Case 2). In addition, the “^3H-THK5117 specific binding” value in experiment [7] (Hippocampus, AD Case 3) turned out to be 112 fmol/mg; in [7] (Inferior temporal gyrus, AD Case 1), 764 fmol/mg; in experiment [7] (Inferior temporal gyrus, AD Case 2), 125 fmol/mg; in experiment [7] (Inferior temporal gyrus, AD Case 3) it was 59 fmol/mg; in experiment [7] (Insular cortex, AD Case 1), 423 fmol/mg; in experiment [7] (Insular cortex, AD Case 2) it was 68 fmol/mg. Besides, the “^3H-THK5117 specific binding” value in experiment [7] (Insular cortex, AD Case 3) is 50 fmol/mg; in [7] (Middle frontal gyrus, AD Case 1), 276 fmol/mg; in experiment [7] (Middle frontal gyrus, AD Case 2) it was 55 fmol/mg; in experiment [7] (Middle frontal gyrus, AD Case 3), 56 fmol/mg; in experiment [7] (Middle temporal gyrus, AD Case 1), 495 fmol/mg; in experiment [7] (Middle temporal gyrus, AD Case 2), 140 fmol/mg. Moreover, the “^3H-THK5117 specific binding” value came to 48 fmol/mg in experiment [7] (Middle temporal gyrus, AD Case 3); 312 fmol/mg in [7] (Postcentral gyrus, AD Case 1); 77 fmol/mg in experiment [7] (Postcentral gyrus, AD Case 2); 75 fmol/mg in [7] (Postcentral gyrus, AD Case 3); 310 fmol/mg in experiment [7] (Precentral gyrus, AD Case 1); 32 fmol/mg in experiment [7] (Precentral gyrus, AD Case 2). Besides, the “^3H-THK5117 specific binding” value turned out to be 102 fmol/mg in experiment [7] (Precentral gyrus, AD Case 3); 242 fmol/mg in [7] (Putamen, AD Case 1); 344 fmol/mg in experiment [7] (Superior frontal gyrus, AD Case 1); 57 fmol/mg in experiment [7] (Superior frontal gyrus, AD Case 2); 114 fmol/mg in experiment [7] (Superior frontal gyrus, AD Case 3); 363 fmol/mg in [7] (Superior temporal gyrus, AD Case 1). For the same compound, the “^3H-THK5117 specific binding” value turned out to be 114 fmol/mg in experiment [7] (Superior temporal gyrus, AD Case 2); 53 fmol/mg in experiment [7] (Superior temporal gyrus, AD Case 3); 349 fmol/mg in [7] (Thalamus, AD Case 1). The “Autoradiography binding in control case” value in [7] (control case compared to the three AD cases, 4 nM) was “Low and regional binding”. Moreover, in [5] (high affinity site), the “Bmax, first binding site” value was 250 fmol/mg. Also, the “Bmax, second binding site” value in experiment [5] (low affinity site) was found to be 1226 fmol/mg. This compound also came in with a Bmax1 in experiment [6] (high affinity site, determined manually from Scatchard plot) of 250 fmol/mg. In experiment [6] (low affinity site (GraphPad Prism fit)), this compound yielded a Bmax2 of 1416 fmol/mg. Besides, the “Autoradiography binding pattern versus AT8 immunostaining” value in [8] is reported as “identical binding pattern”. Moreover, the “Regional binding of ^3H-THK5117” value in experiment [9] (caudate nucleus homogenates) is 198 ± 30 fmol/mg; in experiment [9] (cerebellum homogenates) it was “very low”; in experiment [9] (hippocampus homogenates), 198 ± 67 fmol/mg; in [9] (parietal lobe homogenates), 105 ± 46 fmol/mg; in [9] (temporal lobe homogenates), 110 ± 47 fmol/mg.
